Reference: article PMC7673538 (PLoS Biology, 2020)

Test system: HeLa R19 cells
Assay: not given
Conditions: human, monkey
With `O=C(c1ccco1)N(Cc1ccccc1)c1ccc(C(F)(F)F)cc1` [Compound 19i, N-benzyl-N-(4-(trifluoromethyl)phenyl)furan-2-carboxamide] the “cytotoxicity (in words)” value was “cytotoxicity in a similar range as the parental compound 1”.

Test system: HRV-A2
Assay: microbe, parasite or virus in culture
Format: cell-based, human rhinovirus
Conditions: not given
In the case of (S)-fluoxetine [reference compound], the “inhibition of HRV-A2 replication (in words)” value is reported as “inhibited”.

Same assay, conditions: Human rhinovirus sp., HRVA2, HeLa R19, read-out: EC50 HRV-A2
For `O=C(c1ccco1)N(Cc1ccccc1)c1ccc(C(F)(F)F)cc1` [Compound 19i, N-benzyl-N-(4-(trifluoromethyl)phenyl)furan-2-carboxamide], the EC50 was over 30 µM.

Test system: not listed separately
Assay: in vitro
Conditions: monkey, CC50
Work on `O=C(c1ccco1)N(Cc1ccccc1)c1ccc(C(F)(F)F)cc1` [Compound 19i, N-benzyl-N-(4-(trifluoromethyl)phenyl)furan-2-carboxamide] yielded a CC50 of 55.4 ± 0.05 µM.

Same assay, conditions: monkey, CC50 BGM Average
`O=C(c1ccco1)N(Cc1ccccc1)c1ccc(C(F)(F)F)cc1` [Compound 19i, N-benzyl-N-(4-(trifluoromethyl)phenyl)furan-2-carboxamide] gave a CC50 of 55.4 µM.

Same assay, conditions: monkey, Exp 1 CC50 BGM
`O=C(c1ccco1)N(Cc1ccccc1)c1ccc(C(F)(F)F)cc1` [Compound 19i, N-benzyl-N-(4-(trifluoromethyl)phenyl)furan-2-carboxamide] gave a CC50 of 55.3 µM.

Same assay, conditions: monkey, Exp 2 CC50 BGM
Work on `O=C(c1ccco1)N(Cc1ccccc1)c1ccc(C(F)(F)F)cc1` [Compound 19i, N-benzyl-N-(4-(trifluoromethyl)phenyl)furan-2-carboxamide] yielded a CC50 of 55.5 µM.

Test system: CV-A24
Assay: microbe, parasite or virus in culture
Format: cell-based, coxsackievirus A24
Conditions: Enterovirus C, CVA24, HeLa R19, read-out: EC50 CV-A24
`O=C(c1ccco1)N(Cc1ccccc1)c1ccc(C(F)(F)F)cc1` [Compound 19i, N-benzyl-N-(4-(trifluoromethyl)phenyl)furan-2-carboxamide] gave an EC50 of over 30 µM.

Test system: PV-1
Assay: microbe, parasite or virus in culture
Format: cell-based, poliovirus 1
Conditions: Enterovirus C, HeLa R19, read-out: EC50 PV-1
`O=C(c1ccco1)N(Cc1ccccc1)c1ccc(C(F)(F)F)cc1` [Compound 19i, N-benzyl-N-(4-(trifluoromethyl)phenyl)furan-2-carboxamide] gave an EC50 of over 30 µM.

Test system: not listed separately
Assay: in vitro
Conditions: human, CC50 Average
`O=C(c1ccco1)N(Cc1ccccc1)c1ccc(C(F)(F)F)cc1` [Compound 19i, N-benzyl-N-(4-(trifluoromethyl)phenyl)furan-2-carboxamide] gave a CC50 of over 30 µM.

Same assay, conditions: human, CC50 HelaR19 Average
`O=C(c1ccco1)N(Cc1ccccc1)c1ccc(C(F)(F)F)cc1` [Compound 19i, N-benzyl-N-(4-(trifluoromethyl)phenyl)furan-2-carboxamide] showed a CC50 of 68.5 µM.

Same assay, conditions: human, Exp 1 CC50
In the case of `O=C(c1ccco1)N(Cc1ccccc1)c1ccc(C(F)(F)F)cc1` [Compound 19i, N-benzyl-N-(4-(trifluoromethyl)phenyl)furan-2-carboxamide], the CC50 is reported as over 30 µM.

Same assay, conditions: human, Exp 1 CC50 HelaR19
For `O=C(c1ccco1)N(Cc1ccccc1)c1ccc(C(F)(F)F)cc1` [Compound 19i, N-benzyl-N-(4-(trifluoromethyl)phenyl)furan-2-carboxamide], the CC50 was 68 µM.

Same assay, conditions: human, Exp2 CC50
`O=C(c1ccco1)N(Cc1ccccc1)c1ccc(C(F)(F)F)cc1` [Compound 19i, N-benzyl-N-(4-(trifluoromethyl)phenyl)furan-2-carboxamide] gave a CC50 of over 30 µM.

Same assay, conditions: human, Exp 2 CC50 HelaR19
With `O=C(c1ccco1)N(Cc1ccccc1)c1ccc(C(F)(F)F)cc1` [Compound 19i, N-benzyl-N-(4-(trifluoromethyl)phenyl)furan-2-carboxamide] the CC50 was 69 µM.

Test system: CV-B3
Assay: microbe, parasite or virus in culture
Format: cell-based, coxsackievirus B3
Conditions: not given
In the case of (S)-fluoxetine [reference compound], the “antiviral activity against CV-B3 (in words)” value is reported as “inhibited” and the “cross-resistance of 19d-resistant CV-B3 virus pools (in words)” value is reported as “cross-resistant”. With `O=C(c1ccco1)N(Cc1ccccc1)c1ccc(C(F)(F)F)cc1` [Compound 19i, N-benzyl-N-(4-(trifluoromethyl)phenyl)furan-2-carboxamide] the “effect of the substitution on antiviral activity against CV-B3 (in words)” value was “had little effect”.

Same assay, conditions: Enterovirus B, CVB3, HeLa
Work on `O=C(c1ccco1)N(Cc1ccccc1)c1ccc(C(F)(F)F)cc1` [Compound 19i, N-benzyl-N-(4-(trifluoromethyl)phenyl)furan-2-carboxamide] yielded an EC50 of 2.75 ± 0.25 µM.

Same assay, conditions: Enterovirus B, CVB3, HeLa R19, read-out: CV-B3 EC50 Average
`O=C(c1ccco1)N(Cc1ccccc1)c1ccc(C(F)(F)F)cc1` [Compound 19i, N-benzyl-N-(4-(trifluoromethyl)phenyl)furan-2-carboxamide] showed an EC50 of 2.45 µM.

Same assay, conditions: Enterovirus B, CVB3, HeLa R19, read-out: CV-B3 Exp 1 EC50
Work on `O=C(c1ccco1)N(Cc1ccccc1)c1ccc(C(F)(F)F)cc1` [Compound 19i, N-benzyl-N-(4-(trifluoromethyl)phenyl)furan-2-carboxamide] yielded an EC50 of 2.35 µM.

Same assay, conditions: Enterovirus B, CVB3, HeLa R19, read-out: CV-B3 Exp2 EC50
`O=C(c1ccco1)N(Cc1ccccc1)c1ccc(C(F)(F)F)cc1` [Compound 19i, N-benzyl-N-(4-(trifluoromethyl)phenyl)furan-2-carboxamide] showed an EC50 of 2.55 µM.

Same assay, conditions: Enterovirus B, CVB3, HeLa R19, read-out: EC50 HelaR19 Average
In the case of `O=C(c1ccco1)N(Cc1ccccc1)c1ccc(C(F)(F)F)cc1` [Compound 19i, N-benzyl-N-(4-(trifluoromethyl)phenyl)furan-2-carboxamide], the EC50 is reported as 2.78 µM.

Same assay, conditions: Enterovirus B, CVB3, HeLa R19, read-out: Exp 1 EC50 HelaR19
With `O=C(c1ccco1)N(Cc1ccccc1)c1ccc(C(F)(F)F)cc1` [Compound 19i, N-benzyl-N-(4-(trifluoromethyl)phenyl)furan-2-carboxamide] the EC50 was 2.52 µM.

Same assay, conditions: Enterovirus B, CVB3, HeLa R19, read-out: Exp 2 EC50 HelaR19
`O=C(c1ccco1)N(Cc1ccccc1)c1ccc(C(F)(F)F)cc1` [Compound 19i, N-benzyl-N-(4-(trifluoromethyl)phenyl)furan-2-carboxamide] showed an EC50 of 3.03 µM.

Test system: EV-A71
Assay: microbe, parasite or virus in culture
Format: cell-based, enterovirus A71
Conditions: Enterovirus A, EVA71, HeLa R19, read-out: EC50 EV-A71
`O=C(c1ccco1)N(Cc1ccccc1)c1ccc(C(F)(F)F)cc1` [Compound 19i, N-benzyl-N-(4-(trifluoromethyl)phenyl)furan-2-carboxamide] gave an EC50 of over 30 µM.

Test system: not listed separately
Assay: in vitro
Conditions: human, CC50
With `O=C(c1ccco1)N(Cc1ccccc1)c1ccc(C(F)(F)F)cc1` [Compound 19i, N-benzyl-N-(4-(trifluoromethyl)phenyl)furan-2-carboxamide] the CC50 was over 100 µM.

Same assay, conditions: human, CC50 Hap1 Average
`O=C(c1ccco1)N(Cc1ccccc1)c1ccc(C(F)(F)F)cc1` [Compound 19i, N-benzyl-N-(4-(trifluoromethyl)phenyl)furan-2-carboxamide] gave a CC50 of over 100 µM.

Same assay, conditions: human, Exp 1 CC50 Hap1
`O=C(c1ccco1)N(Cc1ccccc1)c1ccc(C(F)(F)F)cc1` [Compound 19i, N-benzyl-N-(4-(trifluoromethyl)phenyl)furan-2-carboxamide] gave a CC50 of over 100 µM.

Same assay, conditions: human, Exp 2 CC50 Hap1
Work on `O=C(c1ccco1)N(Cc1ccccc1)c1ccc(C(F)(F)F)cc1` [Compound 19i, N-benzyl-N-(4-(trifluoromethyl)phenyl)furan-2-carboxamide] yielded a CC50 of over 100 µM.

Test system: EV-D68
Assay: microbe, parasite or virus in culture
Format: cell-based, enterovirus D68
Conditions: not given
For (S)-fluoxetine [reference compound], the “cross-resistance of 19d-resistant EV-D68 virus pools (in words)” value was “cross-resistance” and the “inhibition of EV-D68 replication (in words)” value was “inhibited”.

Same assay, conditions: Enterovirus D, EVD68, HeLa R19, read-out: EC50 EV-D68
With `O=C(c1ccco1)N(Cc1ccccc1)c1ccc(C(F)(F)F)cc1` [Compound 19i, N-benzyl-N-(4-(trifluoromethyl)phenyl)furan-2-carboxamide] the EC50 was 3.35 ± 0.19 µM.

Same assay, conditions: Enterovirus D, EVD68, HeLa R19, read-out: EC50 Exp1
For `O=C(c1ccco1)N(Cc1ccccc1)c1ccc(C(F)(F)F)cc1` [Compound 19i, N-benzyl-N-(4-(trifluoromethyl)phenyl)furan-2-carboxamide], the EC50 was 3.16 µM.

Same assay, conditions: Enterovirus D, EVD68, HeLa R19, read-out: EC50 Exp2
Work on `O=C(c1ccco1)N(Cc1ccccc1)c1ccc(C(F)(F)F)cc1` [Compound 19i, N-benzyl-N-(4-(trifluoromethyl)phenyl)furan-2-carboxamide] yielded an EC50 of 3.54 µM.

Test system: representative EVs and RVs
Assay: not given
Format: cell-based
Conditions: not given
With (S)-fluoxetine [reference compound] the “inhibition of contemporary/clinical isolates of EV-A71, CV-A24v and EV-D68 (in words)” value was “inhibited contemporary strains of EV-D68 and some, but not all, contemporary EV-A71 strains”.

Test system: CV-B3
Assay: microbe, parasite or virus in culture
Format: cell-based, coxsackievirus B3
Conditions: Enterovirus B, CVB3, HAP1
For `O=C(c1ccco1)N(Cc1ccccc1)c1ccc(C(F)(F)F)cc1` [Compound 19i, N-benzyl-N-(4-(trifluoromethyl)phenyl)furan-2-carboxamide], the EC50 was 1.75 ± 0.29 µM.

Same assay, conditions: Enterovirus B, CVB3, HAP1, read-out: EC50 Hap1 Average
Work on `O=C(c1ccco1)N(Cc1ccccc1)c1ccc(C(F)(F)F)cc1` [Compound 19i, N-benzyl-N-(4-(trifluoromethyl)phenyl)furan-2-carboxamide] yielded an EC50 of 1.74 µM.

Same assay, conditions: Enterovirus B, CVB3, HAP1, read-out: Exp 2 EC50 Hap1
`O=C(c1ccco1)N(Cc1ccccc1)c1ccc(C(F)(F)F)cc1` [Compound 19i, N-benzyl-N-(4-(trifluoromethyl)phenyl)furan-2-carboxamide] showed an EC50 of 2.03 µM.

Test system: HRV-B14
Assay: microbe, parasite or virus in culture
Format: cell-based, human rhinovirus
Conditions: not given
In the case of (S)-fluoxetine [reference compound], the “inhibition of HRV-B14 replication (in words)” value is reported as “inhibited”.

Same assay, conditions: Human rhinovirus sp., HRVB14, HeLa R19, read-out: EC50 HRV-B14
`O=C(c1ccco1)N(Cc1ccccc1)c1ccc(C(F)(F)F)cc1` [Compound 19i, N-benzyl-N-(4-(trifluoromethyl)phenyl)furan-2-carboxamide] gave an EC50 of over 30 µM.

Test system: CV-B3
Assay: microbe, parasite or virus in culture
Format: cell-based, coxsackievirus B3
Conditions: Enterovirus B, CVB3, BGM, read-out: EC50 BGM Average
For `O=C(c1ccco1)N(Cc1ccccc1)c1ccc(C(F)(F)F)cc1` [Compound 19i, N-benzyl-N-(4-(trifluoromethyl)phenyl)furan-2-carboxamide], the EC50 was 1.71 µM.

Same assay, conditions: Enterovirus B, CVB3, BGM, read-out: Exp 1 EC50 BGM
Work on `O=C(c1ccco1)N(Cc1ccccc1)c1ccc(C(F)(F)F)cc1` [Compound 19i, N-benzyl-N-(4-(trifluoromethyl)phenyl)furan-2-carboxamide] yielded an EC50 of 1.42 µM.

Same assay, conditions: Enterovirus B, CVB3, BGM, read-out: Exp 2 EC50 BGM
In the case of `O=C(c1ccco1)N(Cc1ccccc1)c1ccc(C(F)(F)F)cc1` [Compound 19i, N-benzyl-N-(4-(trifluoromethyl)phenyl)furan-2-carboxamide], the EC50 is reported as 1.99 µM.
